Data reported in patent US10822317B2, “Methods and compositions for wound healing” (QBiotics Limited, priority 2013, dated 2020).

Columns and labels:
[1] = system: human neonatal fibroblasts; assay: Scratch closure, human neonatal fibroblasts, Method 2; assay type: cell-based
Protocol: (§1) The ability of early. passage neonatal foreskin fibroblasts (NFF) cultured in RPMI 1640-10% foetal calf serum to migrate across a scratch wound made in a confluent monolayer following treatment with purified compounds or plant extracts was determined using one or more of the following three methods.
Cells were seeded in 6 mm wells (96-well plates) or 16 mm (24-well plates), with 2 to 6 replicate wells/dilution, and treated as in Method 1. Immediately after treatment, the scratch edges were outlined on the underside of the well with a fine point felt pen. After fixing and staining, migration was assessed under the microscope with the aid of a graticule, scoring migration as 0, 25, 50, 75 or 100% (total closure) of the initial width. Accelerated wound closure was considered to be significant if mean quartile of replicates was […] that of untreated controls (p<0.05, t-test). In addition, “wound” areas were created by seeding cells in the presence of 3 mm stainless steel pins (96-well plate), or by inserting flat-edged Teflon rings. These devices were removed after overnight incubation of the NFF cells.

[2] = system: human peripheral blood monocytes; assay: Differentiation of monocytes into macrophages; assay type: cell-based; conditions: 10-fold dilutions; 4 days; adherence and morphology
Protocol: To determine potential effects of Compound 1 and fifteen other epoxy-tigliane compounds in the array on monocyte differentiation, human peripheral blood mononuclear cells (PBMCs) were isolated by Ficoll-Paque sedimentation of heparinised blood from a human donor, and plated at 100,000 cells/well in RPMI-1640 10% FCS. Duplicate wells were treated with 10-fold dilutions of the compounds and incubated at 37° C. for 4 days. The wells were scored visually for cell attachment and morphology, then washed twice with PBS, stained with sulfurhodamine and the incorporate stain quantitated in an ELISA reader. The plates were then washed with water and stained with 1% crystal violet in methanol for photography and scoring of adherent cell morphology.

[3] = system: human neonatal fibroblasts; assay: Scratch closure, human neonatal fibroblasts, Method 3 (IncuCyte); assay type: cell-based
Protocol: as §1
Cells were seeded and treated in 96-well plates as in Method 2 (5 replicate wells per dilution), except that the scratches were made in one action with a tool having 96, 1 mm thick teflon coated pins (Essen Bioscience Woundmaker). The plate was then placed in a 37° C., 5% CO2 humidified atmosphere in an IncuCyte FLR instrument programmed to photograph each well under phase contrast at 3 hr intervals for 42 hours. The software determined the initial scratch boundaries and their rate of closure. Accelerated wound closure was considered to be significant if the initial rate of closure was >10% of the untreated controls.

[4] = system: human neonatal fibroblasts; assay: Matrigel invasion assay for migratory ability; assay type: cell-based; conditions: 30 ng/mL; 24 hrs; fibroblasts starved 2 days, 1% foetal calf serum; ± standard deviation, two replicate experiments
Source text: Matrigel invasion chambers provide cells with the conditions that allow assessment of their invasive property in vitro. The Matrigel invasion chambers consists of a cell culture companion plate with cell culture inserts containing an 8 micron pore size PET membrane with a thin layer of Matrigel Basement Membrane Matrix. The Matrigel matrix serves as a reconstituted basement membrane in vitro. The layer occludes the pores of the membrane, blocking non-invasive cells from migrating through the membrane. In contrast, invasive cells are able to detach themselves from and invade through the Matrigel matrix and the 8 micron membrane pores. The membrane may be processed for light and electron microscopy and can be easily removed after staining.
The chambers were used according to the manufacturer's instructions, as described below in two studies, to assess the effects of Compounds 1, 2, 5 and 42 on migration of human neonatal fibroblasts. The first study assessed effects of three concentrations (0, 10 and 30 ng/mL) of Compound 1 on neonatal fibroblasts in wells containing media with 10% foetal calf serum. The second study used two concentrations (0 and 30 ng/mL) for each of Compounds 1, 2, 5 and 42 to examine effects on migration of neonatal fibroblasts starved for 2 days prior to treatment and then transferred to media with 1% foetal calf serum.
The package containing the chambers was removed from −20° C. storage and allowed to come to room temperature. Warm (37° C.) bicarbonate based culture medium was added to the interior of the inserts (500 μL) and bottom of wells (750 μL). The chambers containing the Matrigel were allowed to rehydrate for 2 hours in humidified tissue culture incubator, 37° C., 5% CO2 atmosphere. After rehydration, the medium was carefully removed by aspiration without disturbing the layer of Matrigel™ Matrix on the membrane.
Cells were harvested, and resuspended at 20,000 cells per mL. A total of 250 μL of the cell suspension was placed into the interior of the insert (5,000 cells). An extra 250 μL media containing the respective Compounds was then added to the interior of the insert to give the desired final concentrations for each of the two studies. A total of 750 μL of media containing appropriate concentrations of each compound in each treatment were placed in the well under the appropriate insert. The Matrigel chambers were then incubated for 24 hours in a humidified tissue culture incubator, at 37° C., 5% CO2 atmosphere.
Non-invading cells were removed from the upper surface of the membrane by “scrubbing”. A cotton tipped swab was dipped into the insert after removal of the media, and firm pressure applied while the tip was moved over the membrane surface. The scrubbing was repeated with a second swab moistened with PBS. Cells that had invaded to the external surface of the insert were then fixed by placing in […] of 100% methanol for at least 5 mins. Inserts were then transferred to a companion plate containing 500 μL of 0.1% crystal violet in methanol, and stained for at least 15 mins. Inserts were destained by passage through 3 companion plates containing 500 μL water, before being air dried.
The following day, the membrane was removed from the insert housing by inverting the insert and inserting the tip of a sharp scalpel blade through the membrane at the edge adjacent to the housing wall. The insert housing was rotated against the stationary blade and the membrane was released. […]

[5] = system: human peripheral blood mononuclear cells (PBMCs); assay: Cytokine production by PBMCs (Cytometric Bead Array); assay type: cell-based; conditions: 24 hr, ± standard deviation
Source text: Specific cytokines play critical roles in wound healing processes, and agents that modulate these substances may be useful in treating wounds and/or improving the cosmetic outcomes of healing (e.g. reduced scarring). The effects of Compounds 1, 2, 5 and 42 on regulation of four cytokines (IL-1β, IL-6, IL-8 and TNFα) known to be critical in early stages of the wound healing process were investigated in human peripheral blood mononuclear cells (PBMCs).
PBMCs were isolated by Ficoll-Paque sedimentation of heparinised blood acquired from both a person (Donor 1) and (Donor 2) human donor. All cells were cultured in 10% FCS, RPMI as detailed previously.
PBMCs were seeded at a density of 1.5×10^5 cells per well in 10% FCS, RPMI. Stimulation of these cells with the four compounds was performed at four concentrations (0 ng/mL, 3 ng/mL, 30 ng/mL, 300 ng/mL) in duplicate for 24 h in a humidified incubator at 37° C., 5% CO2. Media samples were taken from each of the required wells and frozen at −80° C. until use.
Cytometric Bead Array (CBA) assays were used to measure the results. CBA assays provide a method for capturing a soluble analyte or set of analytes using antibody coated beads of known sizes and fluorescence. Detection is then performed using another fluorescently labelled secondary antibody to form a sandwich complex. Each media sample was assayed for the presence of soluble […], IL-6, IL-8, IL-10, IL-12p70 and TNFα using a BD (Becton Dickinson) CBA Human Inflammatory Cytokine Detection Kit according to manufacturers' instructions. Mean fluorescence intensity values from each sample were compared against a standard curve to determine cytokine concentrations (pg/mL).

mouse skin = assay: Acute inflammatory response in mouse skin; assay type: in vivo; conditions: male nude mice, s.c. 50 μL of 100 μg/mL; for scarring of the healed site: 14 days; for diameter of affected area of skin: by 24 hr
Protocol: Male nude mice were injected subcutaneously on each flank with 50 μL of solutions of 100 μg/mL of Compounds 1, 2, 5 and 42 respectively in 20% propylene glycol. Each site reddened within 4 hr and by 24 hr the affected area covered approximately 1 cm diameter of skin.

Compound	Differentiation endpoint (endpoint concentration in dilution series for induction of macrophage phenotype) [2]	Cell count as % of control (Control = no compounds added) [4]	IL-1β level ([5]; Donor 1, 3 ng/mL)	IL-6 level ([5]; Donor 1, 3 ng/mL)	IL-8 level ([5]; Donor 1, 3 ng/mL)	TNFα level ([5]; Donor 1, 3 ng/mL)	IL-1β level ([5]; Donor 1, 30 ng/mL)	IL-6 level ([5]; Donor 1, 30 ng/mL)	IL-8 level ([5]; Donor 1, 30 ng/mL)	TNFα level ([5]; Donor 1, 30 ng/mL)	IL-1β level ([5]; Donor 1, 300 ng/mL)	IL-6 level ([5]; Donor 1, 300 ng/mL)	IL-8 level ([5]; Donor 1, 300 ng/mL)	TNFα level ([5]; Donor 1, 300 ng/mL)	IL-1β level ([5]; Donor 2, 3 ng/mL)	IL-6 level ([5]; Donor 2, 3 ng/mL)	IL-8 level ([5]; Donor 2, 3 ng/mL)	TNFα level ([5]; Donor 2, 3 ng/mL)	IL-1β level ([5]; Donor 2, 30 ng/mL)	IL-6 level ([5]; Donor 2, 30 ng/mL)	other results
CCCC(=O)OC1C(C)C2(O)C(C3OC3(CO)C(O)C3(O)C(=O)C(C)=CC32)C2C(C)(C)C12OC(=O)C(C)CC (centres unmarked) [Compound 8, 12-butanoyl-13-(2-methylbutanoyl)-6,7-epoxy-4,5,9,12,13,20-hexahydroxy-1-tigliaen-3-one]	10 ng/mL	–	–	–	–	–	–	–	–	–	–	–	–	–	–	–	–	–	–	–	% closure compared to control ([1]; 200 ng/mL): 190%
12,13-dibutanoyl-6,7-epoxy-4,5,9,12,13,20-hexahydroxy-1-tigliaen-3-one [Compound 27]	–	–	–	–	–	–	–	–	–	–	–	–	–	–	–	–	–	–	–	–	% closure compared to control ([1]; 1000 ng/mL): 158%; % closure compared to control ([3]; 2000 ng/mL): 130%
CCCCCC(=O)OC1C(C)C2(O)C(C3OC3(CO)C(O)C3(O)C(=O)C(C)=CC32)C2C(C)(C)C12OC(=O)C(C)CC (centres unmarked) [Compound 5, 12-hexanoyl-13-(2-methylbutanoyl)-6,7-epoxy-4,5,9,12,13,20-hexahydroxy-1-tigliaen-3-one]	1 ng/mL	218 ± 21%	2.1 ± 0.1 pg/mL	12.4 ± 0.2 pg/mL	4924 ± 366 pg/mL	85.8 ± 8.4 pg/mL	15.7 ± 0.9 pg/mL	33.6 ± 0.6 pg/mL	17190 ± 55 pg/mL	289.9 ± 18.6 pg/mL	44 ± 1.6 pg/mL	77.5 ± 9.1 pg/mL	17275 ± 40 pg/mL	306.4 ± 9.0 pg/mL	8.1 ± 2.8 pg/mL	14.9 ± 1.1 pg/mL	4765 ± 999 pg/mL	53.9 ± 9.0 pg/mL	43.6 ± 6.1 pg/mL	12.5 ± 1.2 pg/mL	% closure compared to control ([3]; 30 ng/mL): 209%; % closure compared to control ([3]; 200 ng/mL): 300%; IL-8 level ([5]; Donor 2, 30 ng/mL): 26288 ± 260 pg/mL; TNFα level ([5]; Donor 2, 30 ng/mL): 223 ± 11.2 pg/mL; IL-1β level ([5]; Donor 2, 300 ng/mL): 114.9 ± 2.4 pg/mL; IL-6 level ([5]; Donor 2, 300 ng/mL): 51.9 ± 1.3 pg/mL; IL-8 level ([5]; Donor 2, 300 ng/mL): 33870 ± 2532 pg/mL; TNFα level ([5]; Donor 2, 300 ng/mL): 620.9 ± 66.5 pg/mL; scarring of the healed site (mouse skin): minimal scarring; diameter of affected area of skin (mouse skin): approximately 1 cm
12,13-di-hexanoyl-6,7-epoxy-4,5,9,12,13,20-hexahydroxy-1-tigliaen-3-one [Compound 42]	1 ng/mL	350 ± 101%	2.6 ± 0.6 pg/mL	8.1 ± 6.4 pg/mL	3013 ± 377 pg/mL	45.8 ± 55.2 pg/mL	16.8 ± 1.2 pg/mL	32.1 ± 6.7 pg/mL	16389 ± 884 pg/mL	271.9 ± 22.4 pg/mL	41.3 ± 1.2 pg/mL	71 ± 4.6 pg/mL	17425 ± 680 pg/mL	267.5 ± 11.9 pg/mL	21.7 ± 7.5 pg/mL	30.4 ± 11.8 pg/mL	7885 ± 2516 pg/mL	109.5 ± 29.3 pg/mL	71.2 ± 6.0 pg/mL	23.6 ± 0.8 pg/mL	IL-8 level ([5]; Donor 2, 30 ng/mL): 28176 ± 37 pg/mL; TNFα level ([5]; Donor 2, 30 ng/mL): 354.2 ± 6.3 pg/mL; IL-1β level ([5]; Donor 2, 300 ng/mL): 137.8 ± 10.9 pg/mL; IL-6 level ([5]; Donor 2, 300 ng/mL): 69.3 ± 1.8 pg/mL; IL-8 level ([5]; Donor 2, 300 ng/mL): 32925 ± 552 pg/mL; TNFα level ([5]; Donor 2, 300 ng/mL): 631.6 ± 16.9 pg/mL; scarring of the healed site (mouse skin): minimal scarring; diameter of affected area of skin (mouse skin): approximately 1 cm
